Test system: collagen 1 (COL1)
Experiment: WI-38 collagen 1 inhibition assay
Format: cell-based, human
Conditions: Cellular EC50, WI-38 cells; values are classes of LogEC50
Source text: All compounds were profiled for cellular potency in inhibition of collagen 1 (COL1) protein translation using a phenotypic screening platform.
WI-38 cells (ATCC® CCL-75™) were maintained in MEM EAGLE (NEAA) W. GLUTAMIN (Biological Industries, Cat. 06-1040-15-1A) containing 10% fetal bovine serum (FBS) and 1% Penicillin-Streptomycin Solution. To synchronize the cells (cell cycle synchronization) prior to induction of collagen synthesis, the cells were starved using DMEM-low glucose supplemented with 0.25% FBS for two hours and then without FBS for 24 hours. To induce collagen synthesis, the cells were treated with a collagen induction cocktail for the indicated time. Compounds were added with induction.
Cells in 96-well or 384-well plates were fixed for 20 min in 4% paraformaldehyde (PFA, ENCO, Cat. sc-281692). Following two washes with 1×PBS, cells were treated with hydrogen peroxide (Acros, Cat: 7722-84-1) for 10 minutes and then washed twice with 1×PBS. Cells were then incubated over-night at 4° C. with Anti-Collagen I (Sigma-Aldrich, Cat: C 2456) antibody and washed three times with 1×PBS. Cells were then incubated with a suitable secondary fluorescently-tagged antibody and nuclei stained with DAPI, for 1 hour, and then washed 3 times with 1×PBS.
Cell images were taken with Operetta (Perkin Elmer, USA), a wide-field fluorescence microscope at 20× magnification. After acquisition, the images were transferred to Columbus software (Perkin-Elmer) for image analysis. In Columbus, cells were identified by their nucleus, using the “Find Nuceli” module and cytoplasm was detected based on the secondary antibody channel. Subsequently, the fluorescent signal was enumerated in the identified cell region. Data was exported to a data analysis and visualization software, Tibco Spotfire, USA.

With `O=C(Nc1nc(-c2ccccc2Cl)c[nH]1)c1ccc(N2CCOCC2)cn1` [Compound 404, N-(4-(2-chlorophenyl)-1H-imidazol-2-yl)-5-morpholinopicolinamide] the “COL1 Efficacy (LogEC50)” value was “+++ (+++: <−6)”.

In the case of `COc1ccc(C(=O)Nc2nc(-c3cccc4c3OCCO4)cs2)cc1` [Compound 337, N-[4-(2,3-dihydro-1,4-benzodioxin-5-yl)thiazol-2-yl]-4-methoxy-benzamide], the “COL1 Efficacy (LogEC50)” value is reported as “++ (++: −5 to −6)”.

`O=C(Nc1nc(-c2ccccc2Cl)co1)c1ccc(N2CCOCC2)cc1` [Compound 368, N-[4-(2-chlorophenyl)oxazol-2-yl]-4-morpholino-benzamide] was tested, and the “COL1 Efficacy (LogEC50)” value was “++ (++: −5 to −6)”.

`O=C(Nc1nc(-c2ccccc2Cl)cs1)C12CC(C(=O)N3CCOCC3)(C1)C2` [compound 420] was tested, and the “COL1 Efficacy (LogEC50)” value was “+ (+: >−5)”.

`CN(C)Cc1ccccc1-c1csc(NC(=O)c2ccc(N3CCN(S(C)(=O)=O)CC3)cn2)n1` [Compound 460, N-(4-(2-((dimethylamino)methyl)phenyl)thiazol-2-yl)-5-(4-(methylsulfonyl)piperazin-1-yl)picolinamide hemiformate] was tested, and the “COL1 Efficacy (LogEC50)” value was “++ (++: −5 to −6)”.

In the case of `COc1ccc(C(=O)Nc2nc(-c3cncnc3)cs2)cc1` [Compound 338, 4-methoxy-N-(4-pyrimidin-5-ylthiazol-2-yl)benzamide], the “COL1 Efficacy (LogEC50)” value is reported as “+ (+: >−5)”.

With `CS(=O)(=O)N1CCN(C(=O)[C@H]2C[C@@H](C(=O)Nc3nc(-c4ccccc4Cl)cs3)C2)CC1` [compound 429] the “COL1 Efficacy (LogEC50)” value was “+ (+: >−5)”.

`O=C(Nc1nc(N2CCCC2=O)cs1)c1ccc(N2CCOCC2)cn1` [Compound 395, 5-morpholino-N-(4-(2-oxopyrrolidin-1-yl)thiazol-2-yl)picolinamide] was tested, and the “COL1 Efficacy (LogEC50)” value was “+ (+: >−5)”.

`O=C(Nc1nc(-c2ccccc2Cl)cs1)c1ccc(C2CCOCC2)cc1` [Compound 380, N-(4-(2-chlorophenyl)thiazol-2-yl)-4-(tetrahydro-2H-pyran-4-yl)benzamide] was tested, and the “COL1 Efficacy (LogEC50)” value was “+++ (+++: <−6)”.

For `COc1ncc(C(=O)Nc2nc(-c3cccnc3C)cs2)cn1` [compound 355, 2-methoxy-N-[4-(2-methyl-3-pyridyl)thiazol-2-yl]pyrimidine-5-carboxamide], the “COL1 Efficacy (LogEC50)” value was “− (−: inactive)”.

In the case of `O=C(Nc1nc(-c2ccccc2Cl)cs1)c1ccc(N2CCC(O)CC2)cn1` [Compound 446, N-(4-(2-chlorophenyl)thiazol-2-yl)-5-(4-hydroxypiperidin-1-yl)picolinamide], the “COL1 Efficacy (LogEC50)” value is reported as “+++ (+++: <−6)”.

`O=C(Nc1nc(-c2ccccc2Cl)cs1)c1ccc(C2CCOCC2)cn1` [Compound 381, N-(4-(2-chlorophenyl)thiazol-2-yl)-5-(tetrahydro-2H-pyran-4-yl)picolinamide] was tested, and the “COL1 Efficacy (LogEC50)” value was “+++ (+++: <−6)”.

With `O=C(Nc1nc(-c2ccc(Cl)cc2Cl)cs1)c1ccccc1` [Compound 302, N-(4-(2,4-dichlorophenyl)thiazol-2-yl)benzamide] the “COL1 Efficacy (LogEC50)” value was “++ (++: −5 to −6)”.

In the case of `O=C(Nc1nc(-c2ccccc2Cl)cs1)c1ccc(N2CCN(C(=O)CO)CC2)cn1` [Compound 445, N-(4-(2-chlorophenyl)thiazol-2-yl)-5-(4-(2-hydroxyacetyl)piperazin-1-yl)picolinamide], the “COL1 Efficacy (LogEC50)” value is reported as “+++ (+++: <−6)”.

In the case of `CN1CCC(C(=O)N2CCN(c3ccc(C(=O)Nc4nc(-c5ccccc5Cl)cs4)nc3)CC2)CC1` [Compound 483, N-(4-(2-chlorophenyl)thiazol-2-yl)-5-(4-(1-methylpiperidine-4-carbonyl)piperazin-1-yl)picolinamide], the “COL1 Efficacy (LogEC50)” value is reported as “+++ (+++: <−6)”.

For `O=C(Nc1nc(-c2ccccc2Cl)cs1)C1CCC(N2CCOCC2)CC1` (stereo not shown) [compound 432], the “COL1 Efficacy (LogEC50)” value was “− (−: inactive)”.

With `COCCN1CCN(c2ccc(C(=O)Nc3nc(-c4ccccc4Cl)cs3)cc2)CC1` [Compound 377, N-(4-(2-chlorophenyl)thiazol-2-yl)-4-(4-(2-methoxyethyl)piperazin-1-yl)benzamide] the “COL1 Efficacy (LogEC50)” value was “+++ (+++: <−6)”.

In the case of `O=C(Nc1nc(-c2ccc(Cl)cc2Cl)cs1)c1ccc(Cl)cc1` [Compound 303, 4-chloro-N-(4-(2,4-dichlorophenyl)thiazol-2-yl)benzamide], the “COL1 Efficacy (LogEC50)” value is reported as “+ (+: >−5)”.

`Cn1cc(-c2csc(NC(=O)c3ccc(N4CCOCC4)cc3)n2)cn1` [compound 354, N-[4-(1-methylpyrazol-4-yl)thiazol-2-yl]-4-morpholino-benzamide] was tested, and the “COL1 Efficacy (LogEC50)” value was “++ (++: −5 to −6)”.

`Cc1ccc(C(=O)Nc2nc(-c3cnccc3C)cs2)cn1` [compound 348, 6-methyl-N-[4-(4-methyl-3-pyridyl)thiazol-2-yl]pyridine-3-carboxamide] was tested, and the “COL1 Efficacy (LogEC50)” value was “+ (+: >−5)”.

`Cc1ccc(C(=O)Nc2nc(-c3ccc(Cl)cc3Cl)cs2)cc1` [Compound 307, N-(4-(2,4-dichlorophenyl)thiazol-2-yl)-4-methylbenzamide] was tested, and the “COL1 Efficacy (LogEC50)” value was “+++ (+++: <−6)”.

For `Cc1ccc(C(=O)Nc2nc(-c3cc(Cl)sc3Cl)cs2)cc1` [compound 313], the “COL1 Efficacy (LogEC50)” value was “+++ (+++: <−6)”.

With `N#Cc1ccccc1-c1csc(NC(=O)c2ccc(N3CCOCC3)cc2)n1` [compound 361, N-[4-(2-cyanophenyl)thiazol-2-yl]-4-morpholino-benzamide] the “COL1 Efficacy (LogEC50)” value was “− (−: inactive)”.

In the case of `CC(=O)N1CCN(c2ccc(C(=O)Nc3nc(-c4cccnc4CO)cs3)nc2)CC1` [compound 472, 5-(4-acetylpiperazin-1-yl)-N-(4-(2-(hydroxymethyl)pyridin-3-yl)thiazol-2-yl)picolinamide], the “COL1 Efficacy (LogEC50)” value is reported as “++ (++: −5 to −6)”.

With `O=C(Nc1nc(-c2ccccc2Cl)cs1)[C@H]1C[C@H](N2CCOCC2)C1` [compound 422, (1r,3r)-N-(4-(2-chlorophenyl)thiazol-2-yl)-3-morpholinocyclobutane-1-carboxamide] the “COL1 Efficacy (LogEC50)” value was “++ (++: −5 to −6)”.

In the case of `CC(=O)N1CCN(c2cnc(C(=O)Nc3nc(-c4ccccc4Cl)cs3)c(C)c2)CC1` [compound 458, 5-(4-acetylpiperazin-1-yl)-N-(4-(2-chlorophenyl)thiazol-2-yl)-3-methylpicolinamide], the “COL1 Efficacy (LogEC50)” value is reported as “+++ (+++: <−6)”.

For `O=C(Nc1nc(-c2ccc(Cl)cc2Cl)cs1)C1CCOCC1` [Compound 306, N-(4-(2,4-dichlorophenyl)thiazol-2-yl)tetrahydro-2H-pyran-4-carboxamide], the “COL1 Efficacy (LogEC50)” value was “++ (++: −5 to −6)”.

For `COCCOCc1ccccc1-c1csc(NC(=O)c2ccc(N3CCOCC3)cc2)n1` [Compound 379, N-(4-(2-((2-methoxyethoxy)methyl)phenyl)thiazol-2-yl)-4-morpholinobenzamide], the “COL1 Efficacy (LogEC50)” value was “++ (++: −5 to −6)”.

`O=C(Nc1nc(-c2ccccc2Cl)cs1)c1ccc(N2CCOCC2)cc1F` [compound 408] was tested, and the “COL1 Efficacy (LogEC50)” value was “− (−: inactive)”.

With `CN(C)CC(=O)N1CCN(c2ccc(C(=O)Nc3nc(-c4ccccc4Cl)cs3)nc2)CC1` [Compound 443, N-(4-(2-chlorophenyl)thiazol-2-yl)-5-(4-(dimethylglycyl)piperazin-1-yl)picolinamide] the “COL1 Efficacy (LogEC50)” value was “+++ (+++: <−6)”.

`CN(C(=O)c1ccc(N2CCOCC2)cc1)c1nc(-c2ccccc2Cl)cs1` [Compound 399, N-(4-(2-chlorophenyl)thiazol-2-yl)-N-methyl-4-morpholinobenzamide] was tested, and the “COL1 Efficacy (LogEC50)” value was “++ (++: −5 to −6)”.

With `COc1ccc(C(=O)Nc2nc(-c3ccc(C)cc3C)cs2)cc1` [Compound 301, N-(4-(2,4-dimethylphenyl)thiazol-2-yl)-4-methoxybenzamide] the “COL1 Efficacy (LogEC50)” value was “+++ (+++: <−6)”.

For `CN1CCC[C@H](C(=O)N2CCN(c3ccc(C(=O)Nc4nc(-c5ccccc5Cl)cs4)nc3)CC2)C1` [Compound 486, (S)—N-(4-(2-chlorophenyl)thiazol-2-yl)-5-(4-(1-methylpiperidine-3-carbonyl)piperazin-1-yl)picolinamide], the “COL1 Efficacy (LogEC50)” value was “+++ (+++: <−6)”.

In the case of `O=C(Nc1nc(-c2ccccc2Cl)cs1)c1ccc(N2CCCC2)cn1` [compound 481, N-(4-(2-chlorophenyl)thiazol-2-yl)-5-(pyrrolidin-1-yl)picolinamide], the “COL1 Efficacy (LogEC50)” value is reported as “+++ (+++: <−6)”.

`O=C(Nc1nc(-c2ccccc2)cs1)c1ccc(N2CCOCC2)cc1` [compound 359, 4-morpholino-N-(4-phenylthiazol-2-yl)benzamide] was tested, and the “COL1 Efficacy (LogEC50)” value was “+ (+: >−5)”.

`COc1ccc(C(=O)Nc2nc(-c3ccc(Cl)cc3Cl)cs2)cc1` [Compound 300, N-(4-(2,4-dichlorophenyl)thiazol-2-yl)-4-methoxybenzamide] was tested, and the “COL1 Efficacy (LogEC50)” value was “++ (++: −5 to −6)”.

`COc1ccc(C(=O)Nc2nc(-c3ccccc3Cl)cs2)cc1` [Compound 304, N-(4-(2-chlorophenyl)thiazol-2-yl)-4-methoxybenzamide] was tested, and the “COL1 Efficacy (LogEC50)” value was “+++ (+++: <−6)”.

— patent publication US20230212131A1, “COLLAGEN 1 TRANSLATION INHIBITORS AND METHODS OF USE THEREOF” (Anima Biotech Inc., priority 2020, published 2023)
